US20250352555A1, “METHOD OF INCREASING IMMUNE CELL ACTIVATION AND/OR TREATING CANCER USING DIBENZOXAZEPINONES” (VASCULAR THERAPEUTICS PTY LTD, priority 2022, published 2025)

Experiments:
[1] = tested on: PD-1; assay: Immunohistochemistry of B16F10 tumors (Day 17), PD-1; type: in vivo, mouse; settings: B16F10 tumors Day 17, 200 mg/kg i.p., vs vehicle
From the text: Immunohistochemical staining and analyses. Rabbit monoclonal anti-CD3 (cat. no. ab16669; mouse, rat and human reactive), rabbit monoclonal anti-PD-1 (cat. no. ab214421), rabbit monoclonal anti-CD68 (cat. no. ab125212) antibodies were obtained from Abcam, rabbit monoclonal anti-phospho-ERK (Thr^202/Tyr^204) (cat. no. CST4370), rabbit monoclonal total ERK (cat. no. CST4695), antibodies were obtained from Cell Signaling Technology. Rabbit polyclonal anti-PD-L1 (cat. no. PA5-20343) antibody was obtained from ThermoFisher.
Formalin fixed, paraffin embedded sections were prepared from tumors. Heat-induced epitope retrieval was applied to all deparaffinized sections (4 μm sections on Superfrost slides) with citrate buffer, pH 6.0 for 5 min at 110° C. Sections were blocked with Dual Endogenous Enzyme Block (DAKO, S2003) for 10 min and then with 2% skim milk for 20 min. Slides were incubated with primary antibody for 60 min at room temperature or overnight at 4° C. and then for 10 min with probe of MACH3 Rabbit AP-Polymer Detection solution (Biocare Medical, M3R533 G, H, L). […] Integrated optical density (IOD) or area of positive staining (red chromagen) was assessed using Image-Pro Plus software (Cybernetics, Bethesda, MD, USA). Positive staining was the average of quantitation in 4-8 fields of view under 20× or 40× objectives. […]

[2] = tested on: p-JNK; assay: Western blotting time course for p-JNK, Jurkat T cells; type: cell-based, human; settings: Western blot time course
Protocol: Western blotting. Cells were treated with compounds and times indicated and total cell lysates were prepared in RIPA buffer. Lysates (10 μg) were resolved by SDS-PAGE and transferred to Immobilon-P polyvinylidene difluoride (PVDF) membranes (Millipore, USA).
Membranes were blocked with 5% skim milk and incubated with rabbit monoclonal anti-c-Jun (Abcam, cat. no. ab32137; mouse, rat and human reactive) antibody, rabbit monoclonal anti-PD-1 (Abcam, cat. no. ab214421) antibody, mouse monoclonal β-actin antibody (Sigma-Aldrich, cat. no. A5316), anti-phospho-SAPK/JNK (Thr^183/Tyr^185) (98F2) (CST, cat. no. 4671) antibody, anti-phospho-p44/42 MAPK (ERK1/2) (Thr^202/Tyr^204) (D13.14.4E) (CST, cat. no. 4370) antibody, anti-phospho-p38 MAPK (Thr^180/Tyr^182) (D3F9) (CST, cat. no. 4511) antibody, anti-SAPK/JNK antibody (CST, cat. no. 9252), anti-p44/42 MAPK (ERK1/2) (137F5) antibody (CST, cat. no. 4695), anti-p38 MAPK antibody (CST, cat. no. 9212), anti-DUSP8 antibody (Abcam, cat. no. ab198175) or anti-c-MAF (BLR045F) antibody (Abcam, cat. no. ab243901). […] Chemiluminescence was detected using the Western Lightning Chemiluminescence system (Thermo Scientific, USA) and ImageQuant™ LAS 4000 biomolecular imager (GE Healthcare Life Sciences, USA). Band intensity in images generated with the LAS 4000 was quantified using NIH Image J. […]

[3] = target: T1, CD28 (Macaca fascicularis, UniProt Q0PDN3); assay: Surface plasmon resonance (SPR), Biacore T200; type: binding; settings: BT2 up to 20 μM (8-point dilution series), 12° C., 20 mM HEPES, 150 mM NaCl, 5% DMSO, pH 7.5
T1 construct: purchased Sino Biological
Protocol: Surface plasmon resonance (SPR). Using a Biacore T200 (Cytiva), CD28 (Sino Biological) was immobilised onto a Series S sensor Chip CM5 (GE) by amine coupling to a level of ˜3000 RU on flow cells 2 and 4 at 25° C., with a flowrate of 10 μl/min. 0.2 M EDC+0.05 M NHS was injected for 420 s followed by CD28 (37.5 μg/ml in 10 mM acetate pH 5) for 450 s with the flowrate reduced to 2 μl/min. Unreacted NHS was blocked with an injection of 1 M ethanolamine-HCl pH 8.5 for 420 s. Flow cells 1 and 3 were used as the reference cells, activated and blocked as described above. Immobilisation running buffer was 20 mM HEPES, 150 mM NaCl, pH 7.5. The SPR run was performed at 12° C. with 20 mM HEPES, 150 mM NaCl, 5% DMSO, pH 7.5 as the running buffer. […] The concentration was confirmed using ^1H 1D NMR. […] Samples were injected for 60 s with a dissociation time of 60 s at a flow rate of 40 μl/min. Solvent correction was performed to correct for excluded volume effects. The integrity of the coupled CD28 was validated by injection of the known binding partner CD80 (Sino Biological) (Waite et al., 2020) (5 point dilution series with 2 μM top concentration).
In T cells, the c-jun promoter is activated by anti-CD28 engagement. CD28, a homodimeric cell surface glycoprotein, is a co-stimulatory signal required for T cell activation. The inventors investigated whether BT2 might interact with CD28. […]

T1 sequence (Q0PDN3 19-152): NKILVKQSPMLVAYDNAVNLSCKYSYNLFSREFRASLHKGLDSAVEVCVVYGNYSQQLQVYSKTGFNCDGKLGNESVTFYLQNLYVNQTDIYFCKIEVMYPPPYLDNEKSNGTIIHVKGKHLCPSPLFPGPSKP

For `CCOC(=O)Nc1ccc2c(c1)C(=O)N(CC)c1ccccc1O2` [BT2, (10-ethyl-11-oxo-10,11-dihydro-dibenzo[b,f][1,4]oxazepin-2-yl)-carbamic acid ethyl ester], the “PD-1 levels in tumors (IHC)” value [1] was “reduced”, the “time to stimulation of JNK phosphorylation” value [2] was no more than 1 h and the “binding to CD28 (SPR sensorgram)” value [3] was “bound to CD28 in a dose-dependent manner”.
